Read-outs that look alike come from different tables or passages of the source.
Tests used:
[1] = log P determination by HPLC (EEC Directive 79/831 Annex V.A8); assay type: physicochemical
Experimental: The measurements were carried out using an Agilent 1100 LC system with a 50*4.6 Zorbax Eclipse C18 1.8 μm column (oven temperature 55° C., flow rate 2.0 ml/min).
The following mobile phases were used:
Mobile phase A: acetonitrile+1000 μl of formic acid/l
Mobile phase B: Millipore water+900 μl of formic acid/l

[2] = tested on: caterpillars of the armyworm (Spodoptera frugiperda); assay: Spodoptera frugiperda test (SPODFR spray treatment); assay type: in vivo; conditions: Spodoptera frugiperda, foliar, read-out: effect in % (caterpillars killed)
Text: (§1) Solvent: 78.0 parts by weight of acetone

[3] = tested on: green peach aphid (Myzus persicae); assay: Myzus test (MYZUPE spray treatment); assay type: in vivo; conditions: Myzus persicae, foliar, read-out: effect in % (aphids killed)
Text: Solvent: 78 parts by weight of acetone
as §1

[4] = tested on: larvae of the mustard beetle (Phaedon cochleariae); assay: Phaedon test (PHAECO spray treatment); conditions: Phaedon cochleariae, in Brassica rapa, foliar, read-out: effect in % (beetle larvae killed)
[5] = reversed-phase HPLC, Zorbax Eclipse C18 column, determined by HPLC according to EEC Directive 79/831 Annex V.A8, read-out: log P
[6] = application rate 100 g/ha, maize leaf discs
[7] = application rate 100 g/ha, Chinese cabbage leaf discs
[8] = reversed-phase HPLC, Zorbax Eclipse C18 column, by HPLC according to EEC Directive 79/831 Annex V.A8, read-out: log P

Row | chromatographic logP [1, 5] | chromatographic logP [1, 8] | Compound | pest or weed control at 100 g/ha [2, 6] | pest or weed control at 100 g/ha [3, 7] | pest or weed control at 100 g/ha [4] | chromatographic logP ([1]; log P) | pest or weed control at 100 g/ha ([2]; in Zea mays) | pest or weed control at 100 g/ha ([3]; in Brassica rapa) | pest or weed control at 20 g/ha ([3]; in Brassica rapa)
1 | 3.54 | – | Cc1cc(Cl)cc(C(=O)NC(C)C)c1NC(=O)c1cc(Cn2nnnc2C(F)(F)C(F)(F)F)nn1-c1ncccc1Br [Example 513] | ≥ 80% | ≥ 80% | ≥ 80% | – | – | – | –
2 | – | – | Cc1cc(Cl)cc(C(=O)NC(C)(C)C)c1NC(=O)c1cc(Cn2nnnc2C(F)(F)C(F)(F)F)nn1-c1ncccc1Cl [Example 443] | – | – | ≥ 80% | 3.92 | ≥ 80% | ≥ 80% | –
3 | – | 4.39 | CSC[C@H](C)NC(=O)c1cc(Cl)cc(C)c1NC(=O)c1cc(Cn2nnc(C(F)(C(F)(F)F)C(F)(F)F)n2)nn1-c1ncccc1Cl [Example 361] | ≥ 80% | ≥ 80% | ≥ 80% | – | – | – | –
4 | – | 3.23 | CCNC(=O)c1cc(Cl)cc(C)c1NC(=O)c1cc(Cn2nnc(C(F)(F)F)n2)nn1-c1ncccc1Br [Example 346] | ≥ 80% | ≥ 80% | ≥ 80% | – | – | – | –
5 | – | – | Cc1cc(C#N)cc(C(=O)NC(C)(C)C)c1NC(=O)c1cc(Cn2nnnc2C(F)(F)F)nn1-c1ncccc1Cl [Example 160] | – | – | ≥ 80% | 3.05 | ≥ 80% | ≥ 80% | –
6 | 3.26 | – | CNC(=O)c1cc(I)cc(C)c1NC(=O)c1cc(Cn2nnc(C(F)(F)F)n2)nn1-c1ncccc1Br [Example 410] | ≥ 80% | ≥ 80% | ≥ 80% | – | – | – | –
7 | – | – | Cc1cc(C#N)cc(C(=O)NOC(C)C)c1NC(=O)c1cc(Cn2nnc(C(F)(F)F)n2)nn1-c1ncccc1Cl [Example 398] | – | – | ≥ 80% | 2.88 | ≥ 80% | ≥ 80% | –
8 | 2.95 | – | Cc1cc(C#N)cc(C(=O)NC2CC2)c1NC(=O)c1cc(Cn2nnnc2C(F)(F)F)nn1-c1ccccc1Cl [Example 525] | ≥ 80% | ≥ 80% | ≥ 80% | – | – | – | –
9 | 2.97 | – | Cc1cc(C#N)cc(C(=O)NCC#N)c1NC(=O)c1cc(Cn2nnc(C(F)(F)F)n2)nn1-c1ccccc1Cl [Example 540] | ≥ 80% | ≥ 80% | ≥ 80% | – | – | – | –
10 | – | – | CSC[C@H](C)NC(=O)c1cc(C)cc(C)c1NC(=O)c1cc(Cn2nnc(C(F)(F)F)n2)nn1-c1ncccc1Cl [Example 86] | – | – | ≥ 80% | 3.5 | ≥ 80% | ≥ 80% | –
11 | – | – | Cc1cc(Cl)cc(C(N)=O)c1NC(=O)c1cc(Cn2nnc(C(F)F)n2)nn1-c1ncccc1Cl [Example 304] | – | – | ≥ 80% | 2.32 | ≥ 80% | ≥ 80% | –
12 | 3.2 | – | Cc1cc(C#N)cc(C(=O)NC(C)(C)C)c1NC(=O)c1cc(Cn2nnc(C(F)(F)F)n2)nn1-c1ncccc1F [Example 407] | ≥ 80% | ≥ 80% | ≥ 80% | – | – | – | –
13 | 3.11 | – | Cc1cc(I)cc(C(=O)NC2CC2)c1NC(=O)c1cc(Cn2nnnc2C(F)(F)F)nn1-c1ncccc1Br [Example 495] | ≥ 80% | ≥ 80% | ≥ 80% | – | – | – | –
14 | – | – | Cc1cc(C#N)cc(C(=O)NC2CC2)c1NC(=O)c1cc(Cn2nnc(C(F)F)n2)nn1-c1ncccc1Cl [Example 264] | – | – | ≥ 80% | 2.39 | ≥ 80% | ≥ 80% | –
15 | 2.46 | – | CNC(=O)c1cc(C#N)cc(C)c1NC(=O)c1cc(Cn2nnc(C(F)(F)F)n2)nn1-c1ncccc1F [Example 405] | ≥ 80% | ≥ 80% | ≥ 80% | – | – | – | –
16 | – | – | Cc1cc(F)cc(C(N)=O)c1NC(=O)c1cc(Cn2nnc(C(F)(F)F)n2)nn1-c1ncccc1Cl [Example 45] | – | – | ≥ 80% | 2.46 | ≥ 80% | ≥ 80% | –
17 | – | – | O=C(NC1CC1)c1cc(Cl)cc(Cl)c1NC(=O)c1cc(Cn2nnc(C(F)F)n2)nn1-c1ncccc1Cl [Example 284] | – | – | ≥ 80% | 2.7 | ≥ 80% | ≥ 80% | –
18 | – | – | CNC(=O)c1cc(Cl)cc(Cl)c1NC(=O)c1cc(Cn2nnnc2C(F)F)nn1-c1ncccc1Cl [Example 476] | – | – | ≥ 80% | 2.22 | ≥ 80% | ≥ 80% | –
19 | – | – | CCC(C)NC(=O)c1cc(C#N)cc(C)c1NC(=O)c1cc(Cn2nnc(C(F)(F)F)n2)nn1-c1ncccc1Cl (stereo not drawn) [Example 97] | – | – | ≥ 80% | 3.32 | ≥ 80% | – | ≥ 80%
20 | – | – | CSC[C@H](C)NC(=O)c1cc(F)cc(C)c1NC(=O)c1cc(Cn2nnc(C(F)(F)F)n2)nn1-c1ncccc1Cl [Example 43] | – | – | ≥ 80% | 3.31 | ≥ 80% | ≥ 80% | –
21 | – | – | CCNC(=O)c1cc(C#N)cc(C)c1NC(=O)c1cc(Cn2nnnc2C(F)(F)F)nn1-c1ncccc1Cl [Example 191] | – | – | ≥ 80% | 2.5 | ≥ 80% | ≥ 80% | –
22 | 3.13 | – | CNC(=O)c1cc(C#N)cc(C)c1NC(=O)c1cc(Cn2nnc(C(F)(F)F)n2)nn1-c1c(F)cccc1Cl [Example 529] | ≥ 80% | ≥ 80% | ≥ 80% | – | – | – | –
23 | – | – | CNC(=O)c1cc(I)cc(C)c1NC(=O)c1cc(Cn2nnc(C(F)F)n2)nn1-c1ncccc1Cl [Example 273] | – | – | ≥ 80% | 2.73 | ≥ 80% | ≥ 80% | –
24 | – | – | Cc1cc(F)cc(C(=O)NC(C)(C)C)c1NC(=O)c1cc(Cn2nnc(C(F)F)n2)nn1-c1ncccc1Cl [Example 308] | – | – | ≥ 80% | 2.9 | ≥ 80% | ≥ 80% | –
25 | – | – | Cc1cc(F)cc(C(=O)NC2CC2)c1NC(=O)c1cc(Cn2nnnc2C(F)(F)F)nn1-c1ncccc1Cl [Example 169] | – | – | ≥ 80% | 2.57 | ≥ 80% | ≥ 80% | –
26 | 3.81 | – | CCC(C)NC(=O)c1cc(C#N)cc(C)c1NC(=O)c1cc(Cn2nnc(C(F)(F)F)n2)nn1-c1ccccc1Cl (stereo not drawn) [Example 530] | ≥ 80% | ≥ 80% | ≥ 80% | – | – | – | –
27 | 3.72 | – | Cc1cc(C#N)cc(C(=O)NC(C)(C)C)c1NC(=O)c1cc(Cn2nnc(C(F)(F)F)n2)nn1-c1ccccc1 [Example 428] | ≥ 80% | ≥ 80% | ≥ 80% | – | – | – | –
